According to patent publication US20060069132A1, “Azolecarboxamide herbicides” (priority 2004, published 2006):

Assays:
barnyardgrass [1] = test: Test C flooded paddy test; type: in vivo, Echinochloa crus-galli; settings: for Plant response rating, Barnyardgrass: 500 g ai/ha, visual rating after 12 to 14 days
Procedure, shortened: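 Scoring by eye, 12–14 days post-treatment, greenhouse-held plants vs. controls; 0 no effect, 100 complete control. Sprayed at 1–4 leaves (2–18 cm); paddy barnyardgrass at 2 leaves, flooded.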

barnyardgrass [2] = test: Test B pre-/postemergence herbicide test; type: in vivo, Echinochloa crus-galli
Procedure, shortened: (§1)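 Formulation: non-phytotoxic solvent mix with surfactant. Timing: preemergence on seed and postemergence on 2–18 cm plants, applied concurrently. Readout after 13–15 d greenhouse: visual 0–100 control rating against controls.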

corn = test: Test B pre-/postemergence herbicide test; type: in vivo, Zea mays
Procedure, shortened: (§2)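 Flooded paddy rice and barnyardgrass were treated at the 2-leaf stage; upland plantings received compound either on sown seed or on 1- to 4-leaf seedlings. All were kept 13–15 days in a greenhouse and scored visually, 0–100, relative to untreated plants.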

wheat = test: Test B postemergence herbicide test; type: in vivo, Triticum aestivum; parameters: key to Wheat plant response rating: 0 = no effect, 100 = complete control
Procedure, shortened: (§3)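 Scale 0–100: zero equals no visible effect, 100 complete control, judged by eye relative to controls. Timing: 13 to 15 days in greenhouse post-treatment. Growth stage at spraying: two leaves (paddy) or one to four leaves, 2–18 cm (postemergence).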

velvetleaf = test: Test B pre-/postemergence herbicide test; type: in vivo, Abutilon theophrasti; settings: for Velvetleaf plant response rating: scale 0 (no effect) to 100 (complete control)
Procedure, shortened: as §2

morningglory = test: Test B pre-/postemergence herbicide test; type: in vivo, Ipomoea coccinea; settings: for Morningglory plant response rating: scale 0 (no effect) to 100 (complete control)
Procedure, shortened: as §1

[3] = system: smallflower umbrella sedge; test: Test C flooded paddy test; type: in vivo, Cyperus difformis; settings: for Plant response rating, Sedge, Umbrella: 500 g ai/ha, visual rating after 12 to 14 days
cocklebur = test: Test B pre-/postemergence herbicide test; type: in vivo, Xanthium strumarium
Procedure, shortened: as §1

Surinam grass = test: Test B pre-/postemergence herbicide test; type: in vivo, Urochloa decumbens; settings: for Surinam Grass plant response rating: scale 0 (no effect) to 100 (complete control)
Procedure, shortened: as §2

ducksalad [4] = test: Test B flooded paddy test; type: in vivo, Heteranthera limosa; settings: 1000 g ai/ha, scale 0 to 100 (0 no effect, 100 complete control)
Procedure, shortened: as §3

blackgrass = test: Test B postemergence herbicide test; type: in vivo, Alopecurus myosuroides
Procedure, shortened: as §3

barnyardgrass [5] = test: Test B flooded paddy test; type: in vivo, Echinochloa crus-galli; settings: 1000 g ai/ha, scale 0 to 100 (0 no effect, 100 complete control)
Procedure, shortened: as §3

wild oat = test: Test B postemergence herbicide test; type: in vivo, Avena fatua; settings: scale 0 (no effect) to 100 (complete control)
Procedure, shortened: as §3

rice [6] = test: Test C flooded paddy test; type: in vivo, Oryza sativa; settings: for Plant response rating, Rice: 500 g ai/ha, visual rating after 12 to 14 days
Procedure, shortened: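 Injury scored visually against controls on a 0 (no effect) to 100 (complete control) scale, 12 to 14 days after treatment in greenhouse. Flooded paddy plants treated at 2-leaf stage; postemergence plants at 1- to 4-leaf stage, 2 to 18 cm tall.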

giant foxtail = test: Test B pre-/postemergence herbicide test; type: in vivo, Setaria faberi
Procedure, shortened: as §2

ducksalad [7] = test: Test C flooded paddy test; type: in vivo, Heteranthera limosa; settings: for Plant response rating, Ducksalad: 500 g ai/ha, visual rating after 12 to 14 days
lambsquarters = test: Test B pre-/postemergence herbicide test; type: in vivo, Chenopodium album; settings: for Lambsquarters plant response rating: scale 0 (no effect) to 100 (complete control)
Procedure, shortened: as §2

[8] = system: small flower umbrella sedge; test: Test B flooded paddy test; type: in vivo, Cyperus difformis; settings: 1000 g ai/ha, scale 0 to 100 (0 no effect, 100 complete control)
Procedure, shortened: as §3

pigweed = test: Test B pre-/postemergence herbicide test; type: in vivo, Amaranthus retroflexus; settings: for Pigweed plant response rating: scale 0 (no effect) to 100 (complete control)
Procedure, shortened: as §2

large crabgrass = test: Test B pre-/postemergence herbicide test; type: in vivo, Digitaria sanguinalis
Procedure, shortened: as §2

rice [9] = test: Test B flooded paddy test; type: in vivo, Oryza sativa; settings: 1000 g ai/ha, scale 0 to 100 (0 no effect, 100 complete control)
Procedure, shortened: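 After treating 2-leaf paddy plants or 2–18 cm postemergence plants (1 to 4 leaves) with formulated chemical, researchers kept them in a greenhouse for 13–15 days. Effects were judged visually versus controls: 0 indicates none, 100 total control.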

[10] = 62 g ai/ha, scale 0 to 100 (0 no effect, 100 complete control)
[11] = 125 g ai/ha, scale 0 to 100 (0 no effect, 100 complete control)
[12] = 250 g ai/ha, scale of 0 to 100, 0 is no effect, 100 is complete control
[13] = scale 0 to 100 (0 no effect, 100 complete control)
[14] = 125 g ai/ha; 0 is no effect, 100 is complete control; preemergence
[15] = 125 g ai/ha; visual rating, scale 0 (no effect) to 100 (complete control); postemergence
[16] = postemergence, 500 g ai/ha; scale 0 to 100, 0 is no effect, 100 is complete control
[17] = 125 g ai/ha, 0 is no effect, 100 is complete control, preemergence
[18] = 125 g ai/ha, visual rating, postemergence
[19] = 500 g ai/ha; visual rating 0-100, 0 no effect, 100 complete control; preemergence
[20] = postemergence, 125 g ai/ha; visual rating, scale 0 (no effect) to 100 (complete control)
[21] = postemergence, 500 g ai/ha; visual rating, scale 0 (no effect) to 100 (complete control)
[22] = preemergence, 125 g ai/ha; 0 to 100 scale, 0 is no effect, 100 is complete control
[23] = 500 g ai/ha, visual rating 0-100, 0 no effect, 100 complete control, preemergence
[24] = postemergence, 125 g ai/ha, visual rating
[25] = postemergence, 500 g ai/ha, visual rating
[26] = preemergence, 125 g ai/ha, 0 to 100 scale, 0 is no effect, 100 is complete control

Cc1nn(C(C)(C)C)nc1C(=O)Nc1cc(C(=O)N(C)C)ccc1F [Compound 378]
50: Plant response rating, Barnyardgrass (barnyardgrass [1]; [13]) | Plant response rating (0 to 100 scale), Velvetleaf (velvetleaf; [17])
30: Plant response rating (0 to 100 scale), Barnyardgrass (barnyardgrass [2]; [14]) | Plant response rating (0 to 100 scale), Corn (corn; [14]) | Morningglory plant response rating (morningglory; Postemergence, 500 g ai/ha) | Rice plant response rating (rice [6]; [12]) | Plant response rating (0 to 100 scale), Foxtail, Giant (giant foxtail; [14]) | Foxtail, Giant plant response rating (giant foxtail; [16])
10: Corn plant response rating (corn; [16]) | Velvetleaf plant response rating (velvetleaf; [18]) | Surinam Grass plant response rating (Surinam grass; [18]) | Rice plant response rating (rice [6]; [11]) | Crabgrass, Large plant response rating (large crabgrass; [16])
80: Plant response rating, Sedge, Umbrella [3, 13] | Barnyardgrass plant response rating (barnyardgrass [5]) | Sedge, Umbrella plant response rating [8]
55: Sedge, Umbrella plant response rating [3, 12]
75: Plant response rating, Ducksalad (ducksalad [7]; [13])
90: Ducksalad plant response rating (ducksalad [4]) | Plant response rating (0 to 100 scale), Lambsquarters (lambsquarters; [17]) | Plant response rating (0 to 100 scale), Pigweed (pigweed; [17])
70: Lambsquarters plant response rating (lambsquarters; Postemergence, 500 g ai/ha) | Pigweed plant response rating (pigweed; Postemergence, 500 g ai/ha) | Rice plant response rating (rice [9])
100: Wheat plant response rating (wheat; 500 g ai/ha, scale 0 to 100, 0 no effect, 100 complete control, preemergence)
0: Barnyardgrass plant response rating (barnyardgrass [1]; [10]) | Barnyardgrass plant response rating (barnyardgrass [1]; [11]) | Barnyardgrass plant response rating (barnyardgrass [1]; [12]) | Barnyardgrass plant response rating (barnyardgrass [2]; [15]) | Barnyardgrass plant response rating (barnyardgrass [2]; [16]) | Corn plant response rating (corn; [15]) | Wheat plant response rating (wheat; 125 g ai/ha, visual rating, scale 0 (no effect) to 100 (complete control), postemergence) | Wheat plant response rating (wheat; Postemergence, 500 g ai/ha, scale 0 (no effect) to 100 (complete control)) | Plant response rating (0 to 100 scale), Morningglory (morningglory; [17]) | Sedge, Umbrella plant response rating ([3]; 62 g ai/ha, scale 0 to 100) | Plant response rating (0 to 100 scale), Cocklebur (cocklebur; [14]) | Cocklebur plant response rating (cocklebur; [15]) | Cocklebur plant response rating (cocklebur; [16]) | Plant response rating (0 to 100 scale), Surinam Grass (Surinam grass; [17]) | Blackgrass plant response rating (blackgrass; [15]) | Blackgrass plant response rating (blackgrass; [16]) | Oat, Wild plant response rating (wild oat; [18]) | Rice plant response rating (rice [6]; 62 g ai/ha, scale 0 to 100) | Foxtail, Giant plant response rating (giant foxtail; [15]) | Ducksalad plant response rating (ducksalad [7]; 62 g ai/ha, scale 0 to 100) | Ducksalad plant response rating (ducksalad [7]; [11]) | Crabgrass, Large plant response rating (large crabgrass; [15])
15: Sedge, Umbrella plant response rating [3, 11]
60: Plant response rating, Rice (rice [6]; [13])
20: Morningglory plant response rating (morningglory; [18]) | Surinam Grass plant response rating (Surinam grass; Postemergence, 500 g ai/ha) | Oat, Wild plant response rating (wild oat; Postemergence, 500 g ai/ha) | Ducksalad plant response rating (ducksalad [7]; [12])
40: Velvetleaf plant response rating (velvetleaf; Postemergence, 500 g ai/ha) | Lambsquarters plant response rating (lambsquarters; [18]) | Pigweed plant response rating (pigweed; [18])

CC(=O)c1cccc(NC(=O)c2cc(C(C)(C)C)nn2CC(F)(F)F)c1 [Compound 126]
25: Plant response rating, Barnyardgrass (barnyardgrass [1]; [13]) | Ducksalad plant response rating (ducksalad [7]; [12])
30: Barnyardgrass plant response rating (barnyardgrass [2]; [21]) | Morningglory plant response rating (morningglory; [25]) | Oat, Wild plant response rating (wild oat; [24]) | Foxtail, Giant plant response rating (giant foxtail; [21]) | Plant response rating, Ducksalad (ducksalad [7]; [13]) | Plant response rating, Crabgrass, Large (large crabgrass; [19])
70: Plant response rating, Pigweed (pigweed; [23])
50: Plant response rating, Sedge, Umbrella [3, 13] | Cocklebur plant response rating (cocklebur; [20]) | Oat, Wild plant response rating (wild oat; [25])
60: Plant response rating, Barnyardgrass (barnyardgrass [2]; [19]) | Lambsquarters plant response rating (lambsquarters; [25])
40: Plant response rating, Barnyardgrass (barnyardgrass [2]; [22]) | Velvetleaf plant response rating (velvetleaf; [25]) | Pigweed plant response rating (pigweed; [24]) | Pigweed plant response rating (pigweed; [25]) | Crabgrass, Large plant response rating (large crabgrass; [20]) | Crabgrass, Large plant response rating (large crabgrass; [21])
0: Barnyardgrass plant response rating (barnyardgrass [1]; [10]) | Barnyardgrass plant response rating (barnyardgrass [1]; 125 g ai/ha, scale of 0 to 100, 0 is no effect, 100 is complete control) | Barnyardgrass plant response rating (barnyardgrass [2]; [20]) | Plant response rating, Corn (corn; [19]) | Corn plant response rating (corn; [20]) | Plant response rating, Corn (corn; [22]) | Wheat plant response rating (wheat; postemergence, 125 g ai/ha, visual rating, scale 0 (no effect) to 100 (complete control)) | Wheat plant response rating (wheat; postemergence, 500 g ai/ha, visual rating, scale 0 (no effect) to 100 (complete control)) | Velvetleaf plant response rating (velvetleaf; [24]) | Plant response rating, Velvetleaf (velvetleaf; [26]) | Morningglory plant response rating (morningglory; [24]) | Plant response rating, Morningglory (morningglory; [26]) | Sedge, Umbrella plant response rating [3, 10] | Plant response rating, Cocklebur (cocklebur; [19]) | Plant response rating, Cocklebur (cocklebur; [22]) | Plant response rating, Surinam Grass (Surinam grass; [26]) | Blackgrass plant response rating (blackgrass; [20]) | Blackgrass plant response rating (blackgrass; [21]) | Rice plant response rating (rice [6]; [10]) | Rice plant response rating (rice [6]; [11]) | Rice plant response rating (rice [6]; [12]) | Plant response rating, Rice (rice [6]; [13]) | Plant response rating, Foxtail, Giant (giant foxtail; [19]) | Plant response rating, Foxtail, Giant (giant foxtail; [22]) | Ducksalad plant response rating (ducksalad [7]; [10]) | Lambsquarters plant response rating (lambsquarters; [24]) | Plant response rating, Lambsquarters (lambsquarters; [26]) | Plant response rating, Pigweed (pigweed; [26]) | Plant response rating, Crabgrass, Large (large crabgrass; [22])
80: Ducksalad plant response rating (ducksalad [4]; visual rating, 13 to 15 days) | Sedge, Umbrella plant response rating ([8]; visual rating, 13 to 15 days)
20: Barnyardgrass plant response rating (barnyardgrass [1]; [12]) | Corn plant response rating (corn; [21]) | Plant response rating, Velvetleaf (velvetleaf; [23]) | Plant response rating, Morningglory (morningglory; [23]) | Sedge, Umbrella plant response rating [3, 11] | Sedge, Umbrella plant response rating [3, 12] | Plant response rating, Surinam Grass (Surinam grass; [23]) | Surinam Grass plant response rating (Surinam grass; [24]) | Surinam Grass plant response rating (Surinam grass; [25]) | Foxtail, Giant plant response rating (giant foxtail; [20]) | Rice plant response rating (rice [9]; visual rating, 13 to 15 days)
90: Plant response rating, Lambsquarters (lambsquarters; [23])
100: Cocklebur plant response rating (cocklebur; [21])
10: Barnyardgrass plant response rating (barnyardgrass [5]; visual rating, 13 to 15 days) | Ducksalad plant response rating (ducksalad [7]; [11])
